Values joined by “and” are separate entries in the source; they are usually repeats but may differ in a detail not shown here. Equal values may be shown once.
Columns and labels:
[1] = ASTM G-85.5 cyclic Prohesion test of PVB wash primers, rated by ASTM D-1654; settings: PVB wash primer; for G-85 Proc. A: ASTM D-1654 rating Procedure A; for G-85 Proc. B: ASTM D-1654 rating Procedure B
Description: (§1) The corrosion inhibiting performance of MnIII and MnIV pigments was evaluated by incorporating them into primer paint formulations. […] The wash primer is composed of a resin, an acid, a corrosion inhibiting pigment, powdered talc, and carbon lampblack. The acid content of this wash primer provides a rigorous initial test of the stability and performance of the pigments. Other, more benign, polymer-based binder and resin systems might not separate the compounds based on their performance as effectively or as rapidly. […] PVB was used exclusively throughout testing to avoid preparation and compositional complications during analysis of pigment performance. However, the invention is not limited to the use of PVB. […] A small amount (0.2 g) of powdered talc (magnesium silicate) “filler” was added. Lampblack was not added to these samples. These components were mixed thoroughly by hand and 3.8 g of phosphoric acid diluent added with further mixing. This rough processing allowed direct comparisons of pigment performance to be made without complications due to powder treatments, modifications, and additives. […] This is not the conventional paint application procedure for aluminum alloys. Under normal service conditions, aluminum alloys are first subjected to a hexavalent chromium-containing conversion coating prior to primer application. However, the conversion coating was omitted so that the performance of the pigment alone could be evaluated and not the synergistic effects of hexavalent chromium (in the conversion coating) or even of barrier films (in the phosphate or anodized coatings). […] This accelerated corrosion test exposes samples to a constant salt-water fog and is a de facto test of solubility for corrosion inhibitors. […] This accelerated corrosion test exposes samples to a cycle of fog of dilute salt and ammonium sulfate at room temperature followed by forced-air drying at an elevated temperature. This is a more realistic test of the ability of a compound to inhibit corrosion. […] After the paint dried for 24 hours, each plate was scribed with an X and the plate edges were sealed with PVC tape to eliminate corrosion edge effects. Two visual observations are associated with this rating test. Procedure A involves a rating of the failure at the scribe-the representative […] of corrosion away from the scribe. […] In this way, not only the bulk corrosion-inhibiting action of a pigment through the binder can be rated, but also its “throwing power”.

[2] = ASTM B-117 static salt fog test of PVB wash primers, rated by ASTM D-1654; settings: PVB wash primer; for B-117 Proc. A: ASTM D-1654 rating Procedure A; for B-117 Proc. B: ASTM D-1654 rating Procedure B
Description: as §1

[3] = cited from earlier work
[4] = 7.44 × 10^−4 M (10% of Cr), 139 hours, 2024-T3 (alloy taken from column order of Table 7)
[5] = 7.44 × 10^−4 M (10% of Cr), 139 hours, 7075-T6 (alloy taken from column order of Table 7)
[6] = 7.44 × 10^−4 M (10% of Cr), 117 hours, 2024-T3 (alloy taken from column order of Table 7)
[7] = 7.44 × 10^−4 M (10% of Cr), 117 hours, 7075-T6 (alloy taken from column order of Table 7)
[8] = 1.49 × 10^−3 M (20% of Cr), 144 hours, 2024-T3 (alloy taken from column order of Table 7)
[9] = 1.49 × 10^−3 M (20% of Cr), 144 hours, 7075-T6 (alloy taken from column order of Table 7)

For barium 13-vanadatomanganate, the “G-85 Proc. A” value [1, 4] was 6 and 7, the “G-85 Proc. A” value [1, 5] was 6 and the “G-85 Proc. B” value [1, 4] was 6. For the same compound, the “G-85 Proc. B” value [1, 5] was 5, the “B-117 Proc. A” value [2, 4] was 7 and the “B-117 Proc. A” value [2, 5] was 7. The “B-117 Proc. B” value [2, 4] was 8 and 7 and the “B-117 Proc. B” value [2, 5] was 6.

For `[O]1[Pb][O][Pb]12[O][Pb][O]2` [red lead], the PbVI solubility ([3]; Glasstone, J. Chem. Soc. 121: 1456-69, 1922) is given as 10^−17 moles/liter Pb^+4.

In the case of zinc 13-vanadatomanganate, the “G-85 Proc. A” value [1, 4] is reported as 7, the “G-85 Proc. A” value [1, 5] is reported as 7 and 6 and the “G-85 Proc. B” value [1, 4] is reported as 6 and 5. For the same compound, the “G-85 Proc. B” value [1, 5] was 6 and 5, the “B-117 Proc. A” value [2, 4] was 8 and the “B-117 Proc. A” value [2, 5] was 7. The “B-117 Proc. B” value [2, 4] was 9 and the “B-117 Proc. B” value [2, 5] was 8.

With strontium 13-vanadatomanganate the “G-85 Proc. A” value [1, 4] was 6, the “G-85 Proc. A” value [1, 5] was 6 and the “G-85 Proc. B” value [1, 4] was 5 and 6. The “G-85 Proc. B” value [1, 5] was 5 and 6, the “B-117 Proc. A” value [2, 4] was 7 and the “B-117 Proc. A” value [2, 5] was 7. For the same compound, the “B-117 Proc. B” value [2, 4] was 6 and the “B-117 Proc. B” value [2, 5] was 6.

In the case of barium 9-molybdomanganate, the “G-85 Proc. A” value [1, 6] is reported as 7, the “G-85 Proc. A” value [1, 7] is reported as 8 and 7 and the “G-85 Proc. B” value [1, 6] is reported as 6. The “G-85 Proc. B” value [1, 7] was 7 and 6, the “B-117 Proc. A” value [2, 6] was 4 and the “B-117 Proc. A” value [2, 7] was 3.

In the case of barium hexaiodatomanganate, the “G-85 Proc. A” value [1, 8] is reported as 7 and 8, the “G-85 Proc. A” value [1, 9] is reported as 8 and 7 and the “G-85 Proc. B” value [1, 8] is reported as 7 and 8. The “G-85 Proc. B” value [1, 9] was 8 and 7, the “B-117 Proc. A” value [2, 8] was 5 and the “B-117 Proc. A” value [2, 9] was 5. For the same compound, the “B-117 Proc. B” value [2, 8] was 3 and the “B-117 Proc. B” value [2, 9] was 3.

With magnesium 13-vanadatomanganate the “G-85 Proc. A” value [1, 4] was 7, the “G-85 Proc. A” value [1, 5] was 6 and 7 and the “G-85 Proc. B” value [1, 4] was 6. The “G-85 Proc. B” value [1, 5] was 5 and 6, the “B-117 Proc. A” value [2, 4] was 9 and the “B-117 Proc. A” value [2, 5] was 7. For the same compound, the “B-117 Proc. B” value [2, 4] was 7 and the “B-117 Proc. B” value [2, 5] was 8.

With calcium 9-molybdomanganate the “G-85 Proc. A” value [1, 6] was 6, the “G-85 Proc. A” value [1, 7] was 7 and the “G-85 Proc. B” value [1, 6] was 5. The “G-85 Proc. B” value [1, 7] was 6, the “B-117 Proc. A” value [2, 6] was 6 and the “B-117 Proc. A” value [2, 7] was 5. For the same compound, the “B-117 Proc. B” value [2, 6] was 3 and the “B-117 Proc. B” value [2, 7] was 4.

In the case of calcium 13-vanadatomanganate, the “G-85 Proc. A” value [1, 4] is reported as 7, the “G-85 Proc. A” value [1, 5] is reported as 7 and the “G-85 Proc. B” value [1, 4] is reported as 6. The “G-85 Proc. B” value [1, 5] was 6, the “B-117 Proc. A” value [2, 4] was 8 and the “B-117 Proc. A” value [2, 5] was 7. The “B-117 Proc. B” value [2, 4] was 7 and the “B-117 Proc. B” value [2, 5] was 6.

For `[O]=[Cr](=[O])([O-])[O-].[O]=[Pb].[Pb+2]` [basic lead chromate], the “solubility in water relative to lead chromate” value [3] is listed as “slightly lower solubility in water”.

In the case of strontium 9-molybdomanganate, the “G-85 Proc. A” value [1, 6] is reported as 6, the “G-85 Proc. A” value [1, 7] is reported as 6 and the “G-85 Proc. B” value [1, 6] is reported as 5. The “G-85 Proc. B” value [1, 7] was 5, the “B-117 Proc. A” value [2, 6] was 5 and the “B-117 Proc. A” value [2, 7] was 4 and 5.

In the case of zinc 9-molybdomanganate, the “G-85 Proc. A” value [1, 6] is reported as 7, the “G-85 Proc. A” value [1, 7] is reported as 7 and 8 and the “G-85 Proc. B” value [1, 6] is reported as 7 and 6. For the same compound, the “G-85 Proc. B” value [1, 7] was 7, the “B-117 Proc. A” value [2, 6] was 5 and the “B-117 Proc. A” value [2, 7] was 5. The “B-117 Proc. B” value [2, 6] was 3 and the “B-117 Proc. B” value [2, 7] was 4 and 3.
